According to EP2048133A1 (Pharmeste S.r.l., priority 2007, dated 2009):
In brackets after ≈: the same amount, converted by molar mass. Read-outs that look alike come from different tables or passages of the source. One block for each compound: values may come before it.

Columns and labels:
[1] = Body temperature measurements; assay type: in vivo, rat; conditions: 30 µmol/kg orally; for body temperature change: monitored for more than 3 hours
Procedure: Rats were placed in individual cages at room temperature (22-25°C). Rectal temperatures were recorded from awake animals by repeated insertion of a lubricated rectal thermocouple probe (model-8402-00, Cole-Palmer Instrument Company) prior to and following orally administration of V405 at 30 µmil/kg.

[2] = Thermodynamic solubility in PBS; assay type: physicochemical; conditions: phosphate buffer pH 7.4, room temperature, stirring 36h, HPLC
Procedure: The standard solution was prepared by dissolving 1.4 mg of V405 in 10 mL of acetonitrile. A saturated solution of V405 was prepared by stirring 10 mL of phosphate buffer pH 7.4 in the presence of 10 mg of compound. The stirring was conducted at room temperature for 36h. The supernatant was filtered through a Millipore […] filter and 10 µL were used as sample for the HPLC determination. (Eluents: A = Water with 0.1% TFA, B = Acetonitrile + 0.1% TFA, Gradient: 0-100% B in 25 min, Column: SYMMETRY 300 C18 5 µM; 4,6 X 150 MM, […]). The solubility was determined by the following relationship: C'= percent area' C/percent area where C= concentration of standard solution (mg/ml), percent area': area of the peak of standard solution, percent area: area of the peak of saturated solution, C'= concentration of the saturated solution. The solubility was then expressed as […].

CYP3A4 = CYP3A4 (Homo sapiens, UniProt P08684); assay: Fluorometric cytochrome P450 inhibition assay; assay type: in vitro ADME; conditions: tested from 0.1 µM to 10 µM, 37°C, read-out: Cytochrome P450 subtypes µM inhibition (estimated IC50) CYP3A4
Sequence of CYP3A4 (P08684 whole entry): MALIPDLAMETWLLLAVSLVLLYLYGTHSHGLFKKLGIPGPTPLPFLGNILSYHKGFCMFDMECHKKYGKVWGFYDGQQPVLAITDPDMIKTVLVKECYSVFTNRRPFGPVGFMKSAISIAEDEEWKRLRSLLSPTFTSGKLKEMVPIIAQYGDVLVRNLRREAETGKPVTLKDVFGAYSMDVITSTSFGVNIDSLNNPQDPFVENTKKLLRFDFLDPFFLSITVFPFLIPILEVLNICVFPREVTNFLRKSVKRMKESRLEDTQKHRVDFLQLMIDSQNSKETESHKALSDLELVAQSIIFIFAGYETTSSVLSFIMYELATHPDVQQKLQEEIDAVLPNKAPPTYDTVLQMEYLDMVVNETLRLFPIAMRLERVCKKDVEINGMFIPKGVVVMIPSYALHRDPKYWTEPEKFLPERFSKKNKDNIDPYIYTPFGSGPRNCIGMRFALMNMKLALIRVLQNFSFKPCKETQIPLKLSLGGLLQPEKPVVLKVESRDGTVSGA
Procedure: (§1) A microtiter plate-based, direct, fluorometric assay was performed to analyze V405 inhibition potential of activities catalyzed by six of the major human liver cytochromes P450 (CYP) enzymes: CYP1A2, CYP2C9, CYP2C19, CYP2D6, CYP2E1 and CYP3A4. The six cytochrome P450 subtypes inhibition was tested from 0.1 µM to10 µM.
(§2) Four dilution points were evaluated (10 µM, 2.15 µM, 0.46 µM and 0.1 µM). A lid was placed on the plate and plate was placed at 37°C in a plate incubator for at least 10 minutes (to pre-warm the buffer and the plate). The reaction started when 0.1 mL enzyme/substrate solution mix was added to test wells. The plate was mixed and the reaction was continued incubating the lid-covered plate at 37°C for the desired time.
(§3) A stop solution was then added to all wells. and an enzyme/substrate mix was dispensed to the inverted blank wells (negative controls).
(§4) >The IC50 was calculated with a typical logistic curve fitting : % Inib = (Min-Max)/(1 + ((Conc)/(IC50)())^p) + Max [formula]

CYP2C9 = CYP2C9 (Homo sapiens, UniProt P11712); assay: Fluorometric cytochrome P450 inhibition assay; assay type: in vitro ADME; conditions: tested from 0.1 µM to 10 µM, 37°C, read-out: Cytochrome P450 subtypes µM inhibition (estimated IC50) CYP2C9
Sequence of CYP2C9 (P11712 whole entry): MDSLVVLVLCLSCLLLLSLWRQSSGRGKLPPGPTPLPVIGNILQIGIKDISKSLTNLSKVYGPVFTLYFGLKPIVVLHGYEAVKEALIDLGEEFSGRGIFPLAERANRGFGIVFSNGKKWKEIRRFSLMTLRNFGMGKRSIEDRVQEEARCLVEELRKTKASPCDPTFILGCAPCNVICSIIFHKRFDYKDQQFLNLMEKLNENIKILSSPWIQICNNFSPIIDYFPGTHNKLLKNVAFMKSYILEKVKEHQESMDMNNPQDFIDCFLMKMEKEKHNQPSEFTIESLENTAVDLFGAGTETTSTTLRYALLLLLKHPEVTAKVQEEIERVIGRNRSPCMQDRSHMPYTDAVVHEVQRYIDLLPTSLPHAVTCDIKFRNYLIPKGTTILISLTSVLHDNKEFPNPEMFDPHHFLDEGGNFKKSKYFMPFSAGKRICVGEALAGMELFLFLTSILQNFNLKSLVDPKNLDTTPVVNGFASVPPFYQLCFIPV
Procedure: as §1, §2, §3, §4

CYP2E1 = CYP2E1 (Homo sapiens, UniProt P05181); assay: Fluorometric cytochrome P450 inhibition assay; assay type: in vitro ADME; conditions: tested from 0.1 µM to 10 µM, 37°C, read-out: Cytochrome P450 subtypes µM inhibition (estimated IC50) CYP2E1
Sequence of CYP2E1 (P05181 whole entry): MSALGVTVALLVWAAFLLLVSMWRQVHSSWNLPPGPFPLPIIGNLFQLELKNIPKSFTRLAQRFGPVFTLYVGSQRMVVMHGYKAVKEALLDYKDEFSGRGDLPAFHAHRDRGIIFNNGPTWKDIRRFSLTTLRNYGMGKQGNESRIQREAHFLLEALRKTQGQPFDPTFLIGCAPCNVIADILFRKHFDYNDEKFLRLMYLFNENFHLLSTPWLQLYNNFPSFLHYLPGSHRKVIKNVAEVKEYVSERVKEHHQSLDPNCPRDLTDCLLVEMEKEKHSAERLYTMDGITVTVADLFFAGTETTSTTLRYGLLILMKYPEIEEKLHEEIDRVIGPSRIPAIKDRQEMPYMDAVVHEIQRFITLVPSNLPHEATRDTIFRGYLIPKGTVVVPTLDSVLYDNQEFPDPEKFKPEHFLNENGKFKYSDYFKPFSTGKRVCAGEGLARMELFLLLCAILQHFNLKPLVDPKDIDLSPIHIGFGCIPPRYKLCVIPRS
Procedure: as §1, §2, §3, §4

CYP2D6 = CYP2D6 (Homo sapiens, UniProt P10635); assay: Fluorometric cytochrome P450 inhibition assay; assay type: in vitro ADME; conditions: tested from 0.1 µM to 10 µM, 37°C, read-out: Cytochrome P450 subtypes µM inhibition (estimated IC50) CYP2D6
Sequence of CYP2D6 (P10635 whole entry): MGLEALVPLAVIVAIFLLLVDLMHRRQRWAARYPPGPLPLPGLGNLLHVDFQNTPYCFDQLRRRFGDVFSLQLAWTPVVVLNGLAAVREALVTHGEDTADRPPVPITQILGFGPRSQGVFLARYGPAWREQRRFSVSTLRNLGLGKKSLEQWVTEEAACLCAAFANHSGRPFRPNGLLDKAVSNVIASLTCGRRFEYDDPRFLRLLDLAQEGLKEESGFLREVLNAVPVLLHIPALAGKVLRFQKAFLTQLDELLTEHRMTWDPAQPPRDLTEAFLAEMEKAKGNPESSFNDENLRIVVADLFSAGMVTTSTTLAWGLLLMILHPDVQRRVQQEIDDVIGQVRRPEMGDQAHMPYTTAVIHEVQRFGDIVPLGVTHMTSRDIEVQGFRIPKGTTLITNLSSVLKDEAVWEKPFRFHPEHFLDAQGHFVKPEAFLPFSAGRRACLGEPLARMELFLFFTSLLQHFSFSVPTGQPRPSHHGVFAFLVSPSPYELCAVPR
Procedure: as §1, §2, §3, §4

CYP2C19 = CYP2C19 (Homo sapiens, UniProt P33261); assay: Fluorometric cytochrome P450 inhibition assay; assay type: in vitro ADME; conditions: tested from 0.1 µM to 10 µM, 37°C, read-out: Cytochrome P450 subtypes µM inhibition (estimated IC50) CYP2C19
Sequence of CYP2C19 (P33261 whole entry): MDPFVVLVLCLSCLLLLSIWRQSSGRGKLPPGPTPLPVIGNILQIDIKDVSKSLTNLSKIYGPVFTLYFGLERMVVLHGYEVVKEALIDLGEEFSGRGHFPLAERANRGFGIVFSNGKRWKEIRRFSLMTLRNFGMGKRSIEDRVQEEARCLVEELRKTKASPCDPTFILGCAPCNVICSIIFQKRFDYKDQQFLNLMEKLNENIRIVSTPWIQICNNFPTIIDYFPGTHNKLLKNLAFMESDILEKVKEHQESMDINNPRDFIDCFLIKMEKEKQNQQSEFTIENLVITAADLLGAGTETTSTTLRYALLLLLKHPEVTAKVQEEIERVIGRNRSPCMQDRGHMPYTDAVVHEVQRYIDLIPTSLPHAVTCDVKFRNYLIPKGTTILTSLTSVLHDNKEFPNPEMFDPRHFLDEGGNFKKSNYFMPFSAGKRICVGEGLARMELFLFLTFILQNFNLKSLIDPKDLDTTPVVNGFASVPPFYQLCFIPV
Procedure: as §1, §2, §3, §4

CYP1A2 = molecular target: T1, CYP1A2 (Homo sapiens, UniProt P05177); assay: Fluorometric cytochrome P450 inhibition assay; assay type: in vitro ADME; conditions: tested from 0.1 µM to 10 µM, 37°C, read-out: Cytochrome P450 subtypes µM inhibition (estimated IC50) CYP1A2
T1 sequence (P05177 1-516): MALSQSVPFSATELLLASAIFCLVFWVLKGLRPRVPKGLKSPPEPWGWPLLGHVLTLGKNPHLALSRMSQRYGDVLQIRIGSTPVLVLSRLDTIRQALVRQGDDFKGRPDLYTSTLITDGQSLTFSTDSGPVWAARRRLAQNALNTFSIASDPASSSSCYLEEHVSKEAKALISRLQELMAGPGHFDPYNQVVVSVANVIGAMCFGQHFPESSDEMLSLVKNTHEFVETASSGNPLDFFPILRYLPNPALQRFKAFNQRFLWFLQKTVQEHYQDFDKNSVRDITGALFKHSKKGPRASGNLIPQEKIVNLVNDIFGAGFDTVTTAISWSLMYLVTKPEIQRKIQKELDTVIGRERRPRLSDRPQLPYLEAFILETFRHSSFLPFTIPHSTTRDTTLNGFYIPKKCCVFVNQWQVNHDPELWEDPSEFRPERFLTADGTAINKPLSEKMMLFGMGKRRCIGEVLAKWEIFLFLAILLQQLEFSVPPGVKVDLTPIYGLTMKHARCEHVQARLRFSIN
Procedure: as §1, §2, §3, §4

TRPV1 expressing neurons = molecular target: T2, TRPV1 expressing neurons (Rattus norvegicus, UniProt O35433); assay: Ca2+ fluorescence measurements in cultured dorsal root ganglia neurones; assay type: cell-based
T2 construct: Adult rats were terminally anaesthetized and decapitated; Dorsal root ganglia were removed; endogenous in cells; host or cells: primary cultured adult rat dorsal root ganglia neurons
T2 sequence (O35433 whole entry): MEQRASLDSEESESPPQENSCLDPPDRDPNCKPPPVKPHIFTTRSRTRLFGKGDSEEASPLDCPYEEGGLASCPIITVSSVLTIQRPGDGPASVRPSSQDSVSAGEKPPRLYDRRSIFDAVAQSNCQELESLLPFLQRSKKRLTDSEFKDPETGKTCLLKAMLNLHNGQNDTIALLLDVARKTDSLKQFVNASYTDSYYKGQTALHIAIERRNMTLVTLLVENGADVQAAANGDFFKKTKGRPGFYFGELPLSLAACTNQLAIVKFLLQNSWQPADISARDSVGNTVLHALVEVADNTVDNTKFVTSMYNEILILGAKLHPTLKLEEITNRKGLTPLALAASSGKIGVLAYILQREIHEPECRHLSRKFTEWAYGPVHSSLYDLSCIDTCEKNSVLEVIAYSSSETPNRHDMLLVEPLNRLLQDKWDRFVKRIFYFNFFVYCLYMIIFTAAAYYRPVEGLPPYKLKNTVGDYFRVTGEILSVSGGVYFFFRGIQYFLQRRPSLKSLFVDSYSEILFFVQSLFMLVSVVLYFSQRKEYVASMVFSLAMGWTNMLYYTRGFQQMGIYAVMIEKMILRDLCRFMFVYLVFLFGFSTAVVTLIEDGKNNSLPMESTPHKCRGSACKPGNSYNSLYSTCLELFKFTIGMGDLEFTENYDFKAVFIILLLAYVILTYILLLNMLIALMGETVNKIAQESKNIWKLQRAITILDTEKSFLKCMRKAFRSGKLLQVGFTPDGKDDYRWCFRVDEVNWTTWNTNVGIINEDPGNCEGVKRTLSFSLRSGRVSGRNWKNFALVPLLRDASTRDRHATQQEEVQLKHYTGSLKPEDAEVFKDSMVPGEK
Procedure: Adult rats were terminally anaesthetized and decapitated. […] The ganglia, placed in cold DMEM supplemented with 10% fetal bovine serum, 2 mM L-glutamine, 100 U/ml penicillin and 100 µg/ml streptomycin, were dissociated in single cells by several passages through a series of syringe needles (23G down to 25G). The medium and the ganglia were filtered to remove debris, topped up with 8 ml of DMEM medium and centrifuged (200 x g for 5 min). […] The cells were then washed twice with the Ca^2+ buffer solution and transferred to a chamber on the stage of a Nikon eclipse TE300 microscope. […] A calibration curve was set up using buffer containing Fura-2-AM-ester and determinant concentrations of free Ca^2+. This curve was then used to convert the data obtained from the F340/F380 ratio to [Ca^2+]¡ (nM).

[3] = Capsaicin-induced secondary allodynia; assay type: in vivo, rat; conditions: 30 µmol/kg orally 2 hours prior to capsaicin (5 nmols/50 µl/paw); 30 min after capsaicin challenge
Procedure: Capsaicin (5 nmols/50 µl/paw) was injected in the plantar surface of the glabrous skin of the right paw of rats anesthetized with diethyl ether (Chaplan et al., 1994). Compound V405 was orally administrated (30 µmol/kg) 2 hours prior to capsaicin injection. Tactile allodynia was evaluated 30 min after capsaicin challenge.

[4] = tested on: six of the major human liver cytochromes P450 (CYP) enzymes; assay: Cytochrome P450 inhibition, whole panel (qualitative statement); assay type: in vitro ADME; conditions: panel of six CYPs, each concentration tested (0.1-10 µM)
Procedure: as §1, §2, §3, §4

[5] = molecular target: T3, TRPV1 expressed in rat spinal cord (Rattus norvegicus, UniProt O35433); assay: Radioligand binding assay ([3H]-RTX, spinal cord membranes)
T3 construct: the spinal cord was removed and disrupted using a Polytron tissue homogenizer; from tissue; host or cells: rat spinal cord membranes
T3 sequence (O35433 whole entry): as above
Procedure: Male Sprague-Dawley rats with body weight between 250 to 350 g at the time for testing were used. For binding assays rats were sacrificed by decapitation under anesthesia and the spinal cord was removed and disrupted using a Polytron tissue homogenizer in ice cold buffer containing 5 mM KCl, 5.8 mM NaCl, 0.75 mM CaCl2, 2 mM MgCl2, 320 mM sucrose, 10 mM Hepes, pH 8.6.^5 The homogenized tissue was centrifuged at 1000 x g for 10 min at 4°C and the supernatant was centrifuged again at 35000 x g for 30 min at 4°C (Beckman Avanti J25). The pellet was resuspended in the same buffer as described above and used in binding experiments. In saturation experiments, 150 µg protein/sample from membrane suspensions were incubated with [^3H]-Resiniferatoxin ([^3H]-RTX) (0.003-3 nM) in the assay buffer containing 0.25 mg/ml fatty acid-free bovine serum albumin at 37°C for 60 min. In competition experiments, the membranes were incubated at 37°C for 60 min with [^3H]RTX (0.4 nM) and with increasing concentrations (from 0.1 nM to 3 µM) of examined compounds.
Non specific binding was evaluated in the presence of 1 µM RTX. After incubation the reaction mixture was cooled at 0°C and incubated with bovine α1-acid glycoprotein (200 µg per tube) for 15 min to reduce non-specific RTX binding. Membrane-bound RTX was separated from free RTX by centrifuging the samples at 18500 x g for 15 min. The tip of the microcentrifuge tube containing the pellet was cut off and the radioactivity was determined by scintillation counting (Packard 2500 TR). Protein concentration was determined according to a Bio-Rad method with bovine serum albumin as a standard reference (Bradford, 1976). Saturation and competition studies were analyzed with the Ligand program.

[6] = 0.1 µM capsaicin; mean and 95% fiducial limits; read-out: IC50 of inhibition of capsaicin-evoked [Ca2+]i mobilization

Structure (SMILES): O=C(Nc1ccc(Cl)cc1)c1ccc(-c2cccc3cnccc23)[n+]([O-])c1 [Example V405]
- IC50 (CYP3A4): > 10 µM
- IC50 (CYP2C9): > 10 µM
- IC50 (CYP2E1): > 10 µM
- IC50 (CYP2D6): > 10 µM
- IC50 (CYP2C19): > 10 µM
- IC50 (CYP1A2): > 10 µM
- IC50 (TRPV1 expressing neurons; read-out: IC50 of inhibition of capsaicin-evoked [Ca2+]i mobilization; 0.1 µM capsaicin; mean and 95% fiducial limits): 15 nM
- body temperature change [1]: No significant temperature change
- body temperature change ([1]; listed as compound 1): does not cause thermal increase
- preventive effect against the pro-allodinic effect of capsaicin [3]: 55%
- solubility thermodynamic at 36 h ([2]; 2160 min): 106.4 µM (≈ 40 µg/mL)
- solubility thermodynamic at 36 h ([2]; phosphate buffer, pH 7.4, aqueous buffer): 106 µM (≈ 39.8 µg/mL)
- interaction with the evaluated cytochromes [4]: does not interact
- Ki [5]: 203 nM

Structure (SMILES): C=C(C)[C@]12C[C@@H](C)[C@@]34O[C@](Cc5ccccc5)(O[C@@H]1[C@@H]3C=C(COC(=O)Cc1ccc(O)c(OC)c1)C[C@]1(O)C(=O)C(C)=C[C@@H]41)O2 [[^3H]-RTX, [^3H]-Resiniferatoxin]
- Kd ([5]; saturation curve, [3H]-RTX 0.003-3 nM, 37°C, 60 min, mean (95% limits)): 0.21 nM

Results, then the compound that gave them:

- temperature increase (mean value) with respect to control animals ([1]; during the whole experiment (more than 3 hours)): +0.5 °C
- Thermodynamic solubility [2]: not soluble
Structure (SMILES): O=C(Nc1ccc(Cl)cc1)c1ccc(-c2cccc3cnccc23)nc1 [non-oxidized homologous, N-(4-chlorophenyl)-6-(isoquinolin-5-yl)pyridine-3-carboxamide, reference compound]

- IC50 (TRPV1 expressing neurons; [6]): 948 nM
Structure (SMILES): Oc1cc2c(cc1O)CN(C(=S)NCCc1ccc(Cl)cc1)CCC2 [capsazepine]

- IC50 (TRPV1 expressing neurons; [6]): 8.7 nM
- Ki ([5]; competition with [3H]RTX (0.4 nM), 37°C, 60 min, read-out: Ki): 36 nM
Structure (SMILES): COc1cccc(NC(=O)/C=C/c2ccc(Cl)cc2)c1 [SB-366791, (E)-3-(4-chlorophenyl)-N-(3-methoxyphenyl)acrylamide]
